Patent US11767310B2, “Nicotinamide RIPK1 inhibitors” (AbbVie Inc., priority 2021, dated 2023)
Like-named read-outs stand apart in the source and are kept apart here.

Legend:
Experiment in all cases: Kinase binding screen
Conditions in all cases: read-out: Percent Control at 100 nM Compound Concentration
CDK2 = CDK2 (Homo sapiens (Human), UniProt P24941)
PLK2 = PLK2 (Homo sapiens (Human), UniProt Q9NYY3)
MAP3K1 = MAP3K1 (Homo sapiens (Human), UniProt Q13233)
RET(V804M) = RET(V804M) (Homo sapiens (Human), UniProt P07949, V804M)
PIK3CA(E545K) = PIK3CA(E545K) (Homo sapiens (Human), UniProt P42336, E545K)
CDK8 = CDK8 (Homo sapiens (Human), UniProt P49336)
[1] = biological target: ABL1(E255K)-phosphorylated (Homo sapiens (Human), UniProt P00519, E255K)
Chain of ABL1(E255K)-phosphorylated (P00519 whole entry E255K): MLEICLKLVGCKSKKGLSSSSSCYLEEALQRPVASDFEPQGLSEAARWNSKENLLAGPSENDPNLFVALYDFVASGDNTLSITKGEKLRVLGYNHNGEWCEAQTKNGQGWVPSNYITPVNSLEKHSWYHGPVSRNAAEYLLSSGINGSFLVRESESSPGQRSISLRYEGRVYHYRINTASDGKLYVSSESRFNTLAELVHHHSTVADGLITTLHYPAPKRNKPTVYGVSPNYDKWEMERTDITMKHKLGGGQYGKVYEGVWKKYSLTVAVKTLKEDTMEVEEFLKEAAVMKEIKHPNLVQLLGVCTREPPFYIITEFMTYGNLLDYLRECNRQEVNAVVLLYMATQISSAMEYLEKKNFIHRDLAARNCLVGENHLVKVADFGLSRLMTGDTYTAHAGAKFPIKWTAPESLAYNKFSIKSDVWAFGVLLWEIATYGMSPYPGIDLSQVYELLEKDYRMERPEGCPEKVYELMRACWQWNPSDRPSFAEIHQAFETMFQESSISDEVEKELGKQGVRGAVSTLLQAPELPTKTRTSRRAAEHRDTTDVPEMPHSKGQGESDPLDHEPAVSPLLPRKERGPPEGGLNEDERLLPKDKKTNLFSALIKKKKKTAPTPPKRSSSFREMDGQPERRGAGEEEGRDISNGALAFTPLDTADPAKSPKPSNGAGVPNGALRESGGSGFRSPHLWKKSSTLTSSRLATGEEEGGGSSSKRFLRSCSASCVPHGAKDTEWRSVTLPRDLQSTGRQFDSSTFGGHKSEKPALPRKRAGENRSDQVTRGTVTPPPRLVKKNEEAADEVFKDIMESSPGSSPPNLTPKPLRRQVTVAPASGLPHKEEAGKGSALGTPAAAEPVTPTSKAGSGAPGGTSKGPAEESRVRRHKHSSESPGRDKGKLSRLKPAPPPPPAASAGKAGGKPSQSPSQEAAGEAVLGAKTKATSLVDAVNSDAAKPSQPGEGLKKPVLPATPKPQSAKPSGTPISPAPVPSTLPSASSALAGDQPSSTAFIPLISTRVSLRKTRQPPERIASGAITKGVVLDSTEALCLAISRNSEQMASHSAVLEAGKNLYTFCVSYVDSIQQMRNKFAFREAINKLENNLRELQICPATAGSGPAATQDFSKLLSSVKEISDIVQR

IKK-epsilon = IKK-epsilon (Homo sapiens (Human), UniProt Q14164)
MEK2 = MEK2 (Homo sapiens (Human), UniProt P36507)
Chain of MEK2 (P36507 whole entry): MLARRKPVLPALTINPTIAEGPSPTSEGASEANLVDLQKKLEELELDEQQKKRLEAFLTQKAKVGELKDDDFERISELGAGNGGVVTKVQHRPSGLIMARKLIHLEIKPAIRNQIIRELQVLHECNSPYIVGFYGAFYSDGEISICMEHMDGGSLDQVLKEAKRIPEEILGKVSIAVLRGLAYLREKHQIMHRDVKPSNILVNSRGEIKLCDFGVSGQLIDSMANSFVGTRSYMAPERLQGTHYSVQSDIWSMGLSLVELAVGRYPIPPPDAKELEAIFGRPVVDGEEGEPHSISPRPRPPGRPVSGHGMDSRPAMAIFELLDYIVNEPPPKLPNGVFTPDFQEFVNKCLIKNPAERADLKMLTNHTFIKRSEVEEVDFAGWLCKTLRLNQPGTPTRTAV

FLT3(K663Q) = FLT3(K663Q) (Homo sapiens (Human), UniProt P36888, K663Q)
IRAK4 = IRAK4 (Homo sapiens (Human), UniProt Q9NWZ3)
AURKA = AURKA (Homo sapiens (Human), UniProt O14965)
ERK5 = ERK5 (Homo sapiens (Human), UniProt Q13164)
[2] = biological target: ABL1(F317I)-phosphorylated (Homo sapiens (Human), UniProt P00519, F317I)
Chain of ABL1(F317I)-phosphorylated (P00519 whole entry F317I): as the sequence (P00519 whole entry E255K) above, with K255E, F317I counted along it

PKNB(M.tuberculosis) = PKNB(M.tuberculosis) (Mycobacterium tuberculosis (strain ATCC 25618 / H37Rv), UniProt P9WI81)
RIPK2 = RIPK2 (Homo sapiens (Human), UniProt O43353)
YANK1 = YANK1 (Homo sapiens (Human), UniProt Q8WU08)
Chain of YANK1 (Q8WU08 whole entry): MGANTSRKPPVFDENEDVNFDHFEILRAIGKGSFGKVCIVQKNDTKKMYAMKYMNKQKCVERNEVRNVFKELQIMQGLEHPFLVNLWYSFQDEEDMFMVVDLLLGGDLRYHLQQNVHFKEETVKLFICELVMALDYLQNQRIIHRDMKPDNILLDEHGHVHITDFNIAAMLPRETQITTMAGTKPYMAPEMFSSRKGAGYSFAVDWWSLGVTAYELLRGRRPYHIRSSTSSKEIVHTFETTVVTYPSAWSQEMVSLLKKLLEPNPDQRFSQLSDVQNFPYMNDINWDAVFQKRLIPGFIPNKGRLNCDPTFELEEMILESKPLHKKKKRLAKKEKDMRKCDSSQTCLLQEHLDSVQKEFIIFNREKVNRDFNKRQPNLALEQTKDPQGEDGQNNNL

EGFR(T790M) = EGFR(T790M) (Homo sapiens (Human), UniProt P00533, T790M)
PRKCQ = PRKCQ (Homo sapiens (Human), UniProt Q04759)
CLK3 = CLK3 (Homo sapiens (Human), UniProt P49761)
Chain of CLK3 (P49761 whole entry): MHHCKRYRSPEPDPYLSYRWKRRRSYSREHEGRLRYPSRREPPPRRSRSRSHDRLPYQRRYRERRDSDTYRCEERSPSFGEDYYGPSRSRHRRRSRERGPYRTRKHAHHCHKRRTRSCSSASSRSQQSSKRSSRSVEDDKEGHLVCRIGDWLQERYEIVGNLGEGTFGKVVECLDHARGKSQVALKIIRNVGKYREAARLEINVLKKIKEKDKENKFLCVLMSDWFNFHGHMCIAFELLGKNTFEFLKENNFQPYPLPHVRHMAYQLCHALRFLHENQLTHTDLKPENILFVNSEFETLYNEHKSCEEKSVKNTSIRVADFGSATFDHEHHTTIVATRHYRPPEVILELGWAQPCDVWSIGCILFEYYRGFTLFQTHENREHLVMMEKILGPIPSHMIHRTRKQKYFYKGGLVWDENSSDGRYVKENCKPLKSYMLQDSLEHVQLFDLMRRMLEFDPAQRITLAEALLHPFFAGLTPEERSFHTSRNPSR

[3] = biological target: RSK2(Kin.Dom.2-C-terminal) (Homo sapiens (Human), UniProt P51812)
Chain of RSK2(Kin.Dom.2-C-terminal) (P51812 422-679): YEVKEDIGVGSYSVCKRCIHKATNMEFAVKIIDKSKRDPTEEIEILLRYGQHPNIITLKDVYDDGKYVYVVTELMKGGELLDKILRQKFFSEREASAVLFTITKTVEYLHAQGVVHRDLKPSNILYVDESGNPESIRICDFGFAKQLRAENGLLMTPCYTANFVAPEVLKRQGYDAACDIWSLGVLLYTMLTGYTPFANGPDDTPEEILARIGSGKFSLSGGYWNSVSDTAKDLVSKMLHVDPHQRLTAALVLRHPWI

TSSK3 = TSSK3 (Homo sapiens (Human), UniProt Q96PN8)
PFTAIRE2 = PFTAIRE2 (Homo sapiens (Human), UniProt Q96Q40)

Chain of MAP3K1 (Q13233 whole entry): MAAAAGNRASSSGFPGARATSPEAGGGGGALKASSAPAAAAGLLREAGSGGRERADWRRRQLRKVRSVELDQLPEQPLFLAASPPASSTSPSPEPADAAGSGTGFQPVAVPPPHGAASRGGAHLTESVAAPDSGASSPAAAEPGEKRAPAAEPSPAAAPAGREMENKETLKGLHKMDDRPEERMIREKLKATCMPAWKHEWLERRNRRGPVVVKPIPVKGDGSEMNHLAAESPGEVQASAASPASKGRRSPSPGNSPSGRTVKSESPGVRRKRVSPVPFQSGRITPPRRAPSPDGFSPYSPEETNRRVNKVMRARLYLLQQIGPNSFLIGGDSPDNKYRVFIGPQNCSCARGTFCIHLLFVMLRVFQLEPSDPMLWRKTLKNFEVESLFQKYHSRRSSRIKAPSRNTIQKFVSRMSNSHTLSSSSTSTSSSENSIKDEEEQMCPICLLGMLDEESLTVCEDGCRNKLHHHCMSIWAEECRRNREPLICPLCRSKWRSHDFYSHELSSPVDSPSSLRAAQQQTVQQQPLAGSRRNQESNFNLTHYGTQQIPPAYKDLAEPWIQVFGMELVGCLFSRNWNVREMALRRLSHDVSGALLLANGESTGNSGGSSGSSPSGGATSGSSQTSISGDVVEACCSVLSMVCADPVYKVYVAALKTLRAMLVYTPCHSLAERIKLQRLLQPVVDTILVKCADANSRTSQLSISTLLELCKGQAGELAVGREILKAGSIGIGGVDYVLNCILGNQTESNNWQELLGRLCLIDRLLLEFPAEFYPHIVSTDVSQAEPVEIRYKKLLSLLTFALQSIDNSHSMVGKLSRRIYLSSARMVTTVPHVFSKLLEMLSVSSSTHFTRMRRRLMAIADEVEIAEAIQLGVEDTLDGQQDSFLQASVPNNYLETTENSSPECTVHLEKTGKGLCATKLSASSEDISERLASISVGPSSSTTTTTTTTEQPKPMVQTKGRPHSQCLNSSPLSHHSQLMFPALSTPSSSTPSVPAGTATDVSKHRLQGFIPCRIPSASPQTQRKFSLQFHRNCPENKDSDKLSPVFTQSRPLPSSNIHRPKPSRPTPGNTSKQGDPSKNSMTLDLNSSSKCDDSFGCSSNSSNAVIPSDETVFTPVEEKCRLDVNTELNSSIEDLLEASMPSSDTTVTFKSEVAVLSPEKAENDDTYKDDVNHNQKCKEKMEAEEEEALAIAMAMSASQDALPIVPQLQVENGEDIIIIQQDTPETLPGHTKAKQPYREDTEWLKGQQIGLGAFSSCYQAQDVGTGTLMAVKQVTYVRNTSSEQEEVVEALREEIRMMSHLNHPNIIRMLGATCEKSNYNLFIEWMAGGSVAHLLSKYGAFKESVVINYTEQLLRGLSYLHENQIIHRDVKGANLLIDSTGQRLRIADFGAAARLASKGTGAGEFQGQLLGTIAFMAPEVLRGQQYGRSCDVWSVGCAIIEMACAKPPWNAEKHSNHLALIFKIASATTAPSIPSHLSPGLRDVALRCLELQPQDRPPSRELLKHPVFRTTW
Chain of PLK2 (Q9NYY3 whole entry): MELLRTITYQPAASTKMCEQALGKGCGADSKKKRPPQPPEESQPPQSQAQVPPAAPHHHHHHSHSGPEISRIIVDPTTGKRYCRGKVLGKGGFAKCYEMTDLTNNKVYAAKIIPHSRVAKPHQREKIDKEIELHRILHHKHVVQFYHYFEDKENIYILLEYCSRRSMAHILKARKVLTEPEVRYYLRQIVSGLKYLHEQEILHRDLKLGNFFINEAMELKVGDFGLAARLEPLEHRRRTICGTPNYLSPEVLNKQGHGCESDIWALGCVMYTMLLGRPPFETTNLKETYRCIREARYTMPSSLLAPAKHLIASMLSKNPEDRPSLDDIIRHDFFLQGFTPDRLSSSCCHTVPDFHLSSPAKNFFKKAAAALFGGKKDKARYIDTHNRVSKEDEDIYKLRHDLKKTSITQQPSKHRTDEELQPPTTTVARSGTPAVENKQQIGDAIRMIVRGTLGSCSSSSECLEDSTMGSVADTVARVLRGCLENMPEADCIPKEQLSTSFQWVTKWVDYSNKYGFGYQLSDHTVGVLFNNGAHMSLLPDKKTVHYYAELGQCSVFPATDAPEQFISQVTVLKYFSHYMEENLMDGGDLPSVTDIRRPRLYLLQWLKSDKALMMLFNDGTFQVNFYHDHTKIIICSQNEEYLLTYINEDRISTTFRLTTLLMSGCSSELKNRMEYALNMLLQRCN

SMILES: CN(C[C@@H](O)Cc1ccccc1)C(=O)c1cncc(C#Cc2cnn(C(F)F)c2)c1 [Example 2, (S)-5-((1-(difluoromethyl)-1H-pyrazol-4-yl)ethynyl)-N-(2-hydroxy-3-phenylpropyl)-N-methylnicotinamide]
- remaining activity at 0.1 µM (CDK2; CDK2): 100%
- remaining activity at 0.1 µM (PLK2; PLK2): 98%
- remaining activity at 0.1 µM (MAP3K1; MAP3K1): 100%
- remaining activity at 0.1 µM (RET(V804M); RET(V804M)): 100%
- remaining activity at 0.1 µM (PIK3CA(E545K); PIK3CA(E545K)): 91%
- remaining activity at 0.1 µM (CDK8; CDK8): 10%
- remaining activity at 0.1 µM ([1]; ABL1(E255K)-phosphorylated): 86%
- remaining activity at 0.1 µM (IKK-epsilon; IKK-epsilon): 100%
- remaining activity at 0.1 µM (MEK2; MEK2): 99%
- remaining activity at 0.1 µM (FLT3(K663Q); FLT3(K663Q)): 100%
- remaining activity at 0.1 µM (IRAK4; IRAK4): 91%
- remaining activity at 0.1 µM (AURKA; AURKA): 100%
- remaining activity at 0.1 µM (ERK5; ERK5): 100%
- remaining activity at 0.1 µM ([2]; ABL1(F317I)-phosphorylated): 100%
- remaining activity at 0.1 µM (PKNB(M.tuberculosis)): 100%
- remaining activity at 0.1 µM (RIPK2; RIPK2): 100%
- remaining activity at 0.1 µM (YANK1; YANK1): 100%
- remaining activity at 0.1 µM (EGFR(T790M); EGFR(T790M)): 100%
- remaining activity at 0.1 µM (PRKCQ; PRKCQ): 94%
- remaining activity at 0.1 µM (CLK3; CLK3): 97%
- remaining activity at 0.1 µM ([3]; RSK2(Kin.Dom.2-C-terminal)): 100%
- remaining activity at 0.1 µM (TSSK3; TSSK3): 82%
- remaining activity at 0.1 µM (PFTAIRE2; PFTAIRE2): 100%

SMILES: CN(C[C@H](Cc1ccccc1)OP(=O)(O)O)C(=O)c1cncc(C#Cc2cnn(C(F)F)c2)c1 [Example 19, (S)-1-(5-((1-(difluoromethyl)-1H-pyrazol-4-yl)ethynyl)-N-methylnicotinamido)-3-phenylpropan-2-yl dihydrogen phosphate]
- remaining activity at 0.1 µM (CDK2): 100%
- remaining activity at 0.1 µM (PLK2): 91%
- remaining activity at 0.1 µM (MAP3K1): 100%
- remaining activity at 0.1 µM (RET(V804M)): 100%
- remaining activity at 0.1 µM (PIK3CA(E545K)): 85%
- remaining activity at 0.1 µM (CDK8): 98%
- remaining activity at 0.1 µM [1]: 91%
- remaining activity at 0.1 µM (IKK-epsilon): 94%
- remaining activity at 0.1 µM (MEK2): 98%
- remaining activity at 0.1 µM (FLT3(K663Q)): 100%
- remaining activity at 0.1 µM (IRAK4): 83%
- remaining activity at 0.1 µM (AURKA): 100%
- remaining activity at 0.1 µM (ERK5): 100%
- remaining activity at 0.1 µM [2]: 98%
- remaining activity at 0.1 µM (PKNB(M.tuberculosis)): 100%
- remaining activity at 0.1 µM (RIPK2): 100%
- remaining activity at 0.1 µM (YANK1): 100%
- remaining activity at 0.1 µM (EGFR(T790M)): 100%
- remaining activity at 0.1 µM (PRKCQ): 98%
- remaining activity at 0.1 µM (CLK3): 93%
- remaining activity at 0.1 µM [3]: 100%
- remaining activity at 0.1 µM (TSSK3): 100%
- remaining activity at 0.1 µM (PFTAIRE2): 100%
